Laboratory results taken from ChEMBL document CHEMBL5608207, “Development of narrow-spectrum topoisomerase-targeting antibacterials against mycobacteria” (Eur J Med Chem, 2024).
Values after ≈ are worked out from the molar mass of the structure shown. Active and inactive are the calls of the source. No cut-off for these calls is given here.

Experiments:
[1] = test system: Mycobacterium tuberculosis; test: (§1) Antimycobacterial activity against GFP-expressing Mycobacterium tuberculosis H37Rv infected in PMA-treated THP-1 cells assessed as bacterial viability at 10 uM pre-infected for 3 hrs prior to gentamycin addition for 1 hr followed by washout and compound addition measured after 4 days by fluorescence microscopic analysis (reference value: 100%); assay type: functional; settings: time 4 day
Staphylococcus aureus = test: Antibacterial activity against Staphylococcus aureus ATCC 29213 incubated for 18 hrs by serial broth microdilution method; assay type: functional
Segatella copri = test: Antibacterial activity against Prevotella copri DSM 18205 measured at 15 mins interval for 24 hrs by broth microdilution method; assay type: functional
[2] = Acute toxicity in zebrafish embryo assessed as effect on embryo development upto 5 mM measured for 4 days; design: species or system Danio rerio; settings: in vivo, 96 h, 5000 µM, time 4 day
[3] = target: DNA gyrase subunit A/DNA gyrase subunit B (Mycobacterium tuberculosis (strain ATCC 25618 / H37Rv), UniProt P9WG45+P9WG47); test: Inhibition of Mycobacterium tuberculosis DNA gyrase using […] DNA as substrate incubated for 30 mins by gel based method; assay type: protein-complex assay
DNA gyrase subunit A/DNA gyrase subunit B, sequence (P9WG45 whole entry): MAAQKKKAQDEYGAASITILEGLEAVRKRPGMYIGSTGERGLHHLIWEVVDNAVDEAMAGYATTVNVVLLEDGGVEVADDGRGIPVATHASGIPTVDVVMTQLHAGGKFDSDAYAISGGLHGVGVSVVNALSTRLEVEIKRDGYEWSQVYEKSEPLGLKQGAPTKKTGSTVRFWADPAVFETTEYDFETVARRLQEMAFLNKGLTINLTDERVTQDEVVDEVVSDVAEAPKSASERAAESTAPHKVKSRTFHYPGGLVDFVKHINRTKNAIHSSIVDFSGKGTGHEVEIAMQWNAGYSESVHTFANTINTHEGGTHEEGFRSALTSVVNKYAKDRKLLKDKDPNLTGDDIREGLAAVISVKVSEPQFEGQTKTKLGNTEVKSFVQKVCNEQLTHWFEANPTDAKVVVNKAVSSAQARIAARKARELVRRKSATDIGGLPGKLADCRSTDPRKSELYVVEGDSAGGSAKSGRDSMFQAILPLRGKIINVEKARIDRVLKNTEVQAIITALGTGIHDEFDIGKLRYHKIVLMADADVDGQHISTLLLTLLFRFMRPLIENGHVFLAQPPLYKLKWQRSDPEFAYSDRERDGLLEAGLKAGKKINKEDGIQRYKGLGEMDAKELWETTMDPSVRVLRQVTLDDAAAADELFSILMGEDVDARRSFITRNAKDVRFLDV
DNA gyrase subunit A/DNA gyrase subunit B, sequence (P9WG47 whole entry): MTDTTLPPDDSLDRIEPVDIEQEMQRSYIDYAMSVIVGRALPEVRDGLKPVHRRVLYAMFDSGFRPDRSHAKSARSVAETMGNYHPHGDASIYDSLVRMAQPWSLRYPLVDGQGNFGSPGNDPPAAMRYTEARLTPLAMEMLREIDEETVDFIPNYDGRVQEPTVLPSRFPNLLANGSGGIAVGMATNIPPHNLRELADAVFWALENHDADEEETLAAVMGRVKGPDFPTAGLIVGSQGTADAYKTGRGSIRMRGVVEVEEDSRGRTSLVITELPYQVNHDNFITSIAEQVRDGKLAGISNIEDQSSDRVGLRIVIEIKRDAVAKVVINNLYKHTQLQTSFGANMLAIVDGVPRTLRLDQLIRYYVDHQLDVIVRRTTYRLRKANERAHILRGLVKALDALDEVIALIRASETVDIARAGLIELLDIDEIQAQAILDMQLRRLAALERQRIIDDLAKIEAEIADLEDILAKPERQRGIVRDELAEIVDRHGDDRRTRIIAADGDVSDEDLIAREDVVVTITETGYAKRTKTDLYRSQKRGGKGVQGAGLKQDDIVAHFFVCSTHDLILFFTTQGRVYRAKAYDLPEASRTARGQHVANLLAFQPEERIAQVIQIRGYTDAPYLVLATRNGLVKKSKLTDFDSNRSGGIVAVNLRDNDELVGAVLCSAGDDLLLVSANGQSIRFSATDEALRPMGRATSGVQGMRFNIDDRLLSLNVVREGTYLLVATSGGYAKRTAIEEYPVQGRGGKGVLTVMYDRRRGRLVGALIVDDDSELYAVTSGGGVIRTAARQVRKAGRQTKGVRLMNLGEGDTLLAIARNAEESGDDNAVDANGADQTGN

MCF7 = test: Cytotoxicity against human MCF7 cells assessed as residual activity at 50 uM incubated for 72 hrs by MTS assay; assay type: functional
THP-1 [4] = test: Cytotoxicity against human THP-1 cells assessed as reduction in viability at 40 uM pretreated with PMA for 48 hrs followed by washout and compound addition for 5 days by resazurin sodium salt method; assay type: toxicity, cell-based; settings: thp-1, 120 h, time 5 day
DNA gyrase = DNA gyrase (Escherichia coli, UniProt P0AES4+P0AES6); test: Inhibition of Escherichia coli DNA gyrase using relaxed pNO1 as substrate measured after 30 mins by SybrGOLD staining based fluorescence microplate reader analysis; assay type: protein-complex assay
[5] = test system: Mycobacterium tuberculosis; test: Antimycobacterial activity against Mycobacterium tuberculosis H37Rv ATCC 25618 assessed as reduction in viability incubated for 6 days by resazurin reduction microplate assay; assay type: functional; settings: H37Rv ATCC 25618, 144 h, time 6 day
[6] = target: DNA topoisomerase 2-alpha (Homo sapiens) (UniProt P11388); test: Inhibition of human DNA topoisomerase II alpha assessed as residual activity at 100 uM using supercoiled pNO1 plasmid as substrate incubated for 30 mins by diamond dye staining based fluorescence microplate reader assay relative to control
DNA topoisomerase 2-alpha (Homo sapiens), sequence (P11388 whole entry): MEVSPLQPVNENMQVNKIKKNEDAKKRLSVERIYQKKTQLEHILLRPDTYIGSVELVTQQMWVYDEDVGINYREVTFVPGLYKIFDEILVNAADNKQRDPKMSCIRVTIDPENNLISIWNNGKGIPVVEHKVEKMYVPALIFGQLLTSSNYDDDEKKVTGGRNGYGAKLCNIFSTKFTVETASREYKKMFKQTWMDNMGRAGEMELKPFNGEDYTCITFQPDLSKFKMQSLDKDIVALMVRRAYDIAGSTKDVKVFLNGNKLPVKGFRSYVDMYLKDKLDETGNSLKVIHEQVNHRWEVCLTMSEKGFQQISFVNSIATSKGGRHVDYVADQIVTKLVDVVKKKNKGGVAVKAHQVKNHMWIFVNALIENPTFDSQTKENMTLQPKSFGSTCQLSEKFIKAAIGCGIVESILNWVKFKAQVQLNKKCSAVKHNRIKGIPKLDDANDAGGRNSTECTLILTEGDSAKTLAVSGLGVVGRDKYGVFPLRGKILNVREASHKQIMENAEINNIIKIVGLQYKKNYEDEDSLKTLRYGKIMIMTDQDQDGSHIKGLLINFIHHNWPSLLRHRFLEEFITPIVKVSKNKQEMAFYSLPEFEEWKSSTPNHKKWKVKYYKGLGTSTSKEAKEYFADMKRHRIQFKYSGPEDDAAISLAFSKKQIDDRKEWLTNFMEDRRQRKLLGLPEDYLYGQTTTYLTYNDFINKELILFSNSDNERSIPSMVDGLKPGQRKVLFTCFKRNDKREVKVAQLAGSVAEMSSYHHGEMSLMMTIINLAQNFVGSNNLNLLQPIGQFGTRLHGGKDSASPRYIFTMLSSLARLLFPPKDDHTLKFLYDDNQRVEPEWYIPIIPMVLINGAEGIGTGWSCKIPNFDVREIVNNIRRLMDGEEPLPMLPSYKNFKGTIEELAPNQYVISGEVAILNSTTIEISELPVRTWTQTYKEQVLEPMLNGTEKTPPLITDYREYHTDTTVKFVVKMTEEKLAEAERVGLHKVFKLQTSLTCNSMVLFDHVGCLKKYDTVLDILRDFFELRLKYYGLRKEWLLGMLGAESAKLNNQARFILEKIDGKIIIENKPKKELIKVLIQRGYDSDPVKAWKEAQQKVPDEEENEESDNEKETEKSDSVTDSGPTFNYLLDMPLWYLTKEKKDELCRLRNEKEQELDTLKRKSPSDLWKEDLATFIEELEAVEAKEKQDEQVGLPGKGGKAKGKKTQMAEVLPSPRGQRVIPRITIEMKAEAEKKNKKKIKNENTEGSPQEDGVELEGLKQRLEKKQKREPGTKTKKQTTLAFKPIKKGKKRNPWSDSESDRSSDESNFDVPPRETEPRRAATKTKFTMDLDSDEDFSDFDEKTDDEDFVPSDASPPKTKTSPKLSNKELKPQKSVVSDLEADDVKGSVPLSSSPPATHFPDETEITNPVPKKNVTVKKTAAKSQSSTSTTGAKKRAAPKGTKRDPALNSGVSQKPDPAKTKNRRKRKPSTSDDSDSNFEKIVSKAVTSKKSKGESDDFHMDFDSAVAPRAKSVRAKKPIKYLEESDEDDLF

Anaerostipes hadrus = test: Antibacterial activity against Anaerostipes hadrus DSM 3319 measured at 15 mins interval for 24 hrs by broth microdilution method; assay type: functional
[7] = test system: Mycolicibacterium smegmatis; test: Antimycobacterial activity against Mycobacterium smegmatis MC2 incubated for 2 days by resazurin reduction microplate assay; assay type: functional; settings: MC2, 48 h, time 2 day
[8] = test system: Mycobacterium tuberculosis; test: as §1, with “viability” for “viability at 10 uM”, “analysis” for “analysis (reference value: 100%)”; assay type: functional, organism-based; settings: dose 1-30 µM, time 4.0 day
[9] = test system: Bacteroides thetaiotaomicron; test: Antibacterial activity against Bacteroides thetaiotaomicron DSM 2079 measured at 15 mins interval for 24 hrs by broth microdilution method; assay type: functional
Pseudomonas aeruginosa = test: Antibacterial activity against Pseudomonas aeruginosa ATCC 27853 incubated for 18 hrs by serial broth microdilution method; assay type: functional
Escherichia coli [10] = test: Antibacterial activity against Escherichia coli ATCC 25922 harboring deltaTolC mutant incubated for 18 hrs by serial broth microdilution method; assay type: functional
Acinetobacter baumannii = test: Antibacterial activity against Acinetobacter baumannii ATCC17978 incubated for 18 hrs by serial broth microdilution method; assay type: functional
[11] = Acute toxicity in zebrafish embryo assessed as change in behavior upto 5 mM measured for 4 days; design: species or system Danio rerio; settings: in vivo, 96 h, 5000 µM, time 4 day
[12] = Inhibition of Escherichia coli DNA topoisomerase IV […] using supercoiled pNO1 as substrate measured after 30 mins by SybrGOLD staining based fluorescence microplate reader analysis
hERG (KCNH2) [13] = target: T1, hERG (KCNH2) (Homo sapiens, UniProt Q12809); test: Inhibition of human ERG expressed in HEK293 cells at 50 uM by whole-cell patch clamp method relative to control; assay type: toxicity, cell-based; settings: HEK293 cells that express hERG
T1 sequence (Q12809 whole entry): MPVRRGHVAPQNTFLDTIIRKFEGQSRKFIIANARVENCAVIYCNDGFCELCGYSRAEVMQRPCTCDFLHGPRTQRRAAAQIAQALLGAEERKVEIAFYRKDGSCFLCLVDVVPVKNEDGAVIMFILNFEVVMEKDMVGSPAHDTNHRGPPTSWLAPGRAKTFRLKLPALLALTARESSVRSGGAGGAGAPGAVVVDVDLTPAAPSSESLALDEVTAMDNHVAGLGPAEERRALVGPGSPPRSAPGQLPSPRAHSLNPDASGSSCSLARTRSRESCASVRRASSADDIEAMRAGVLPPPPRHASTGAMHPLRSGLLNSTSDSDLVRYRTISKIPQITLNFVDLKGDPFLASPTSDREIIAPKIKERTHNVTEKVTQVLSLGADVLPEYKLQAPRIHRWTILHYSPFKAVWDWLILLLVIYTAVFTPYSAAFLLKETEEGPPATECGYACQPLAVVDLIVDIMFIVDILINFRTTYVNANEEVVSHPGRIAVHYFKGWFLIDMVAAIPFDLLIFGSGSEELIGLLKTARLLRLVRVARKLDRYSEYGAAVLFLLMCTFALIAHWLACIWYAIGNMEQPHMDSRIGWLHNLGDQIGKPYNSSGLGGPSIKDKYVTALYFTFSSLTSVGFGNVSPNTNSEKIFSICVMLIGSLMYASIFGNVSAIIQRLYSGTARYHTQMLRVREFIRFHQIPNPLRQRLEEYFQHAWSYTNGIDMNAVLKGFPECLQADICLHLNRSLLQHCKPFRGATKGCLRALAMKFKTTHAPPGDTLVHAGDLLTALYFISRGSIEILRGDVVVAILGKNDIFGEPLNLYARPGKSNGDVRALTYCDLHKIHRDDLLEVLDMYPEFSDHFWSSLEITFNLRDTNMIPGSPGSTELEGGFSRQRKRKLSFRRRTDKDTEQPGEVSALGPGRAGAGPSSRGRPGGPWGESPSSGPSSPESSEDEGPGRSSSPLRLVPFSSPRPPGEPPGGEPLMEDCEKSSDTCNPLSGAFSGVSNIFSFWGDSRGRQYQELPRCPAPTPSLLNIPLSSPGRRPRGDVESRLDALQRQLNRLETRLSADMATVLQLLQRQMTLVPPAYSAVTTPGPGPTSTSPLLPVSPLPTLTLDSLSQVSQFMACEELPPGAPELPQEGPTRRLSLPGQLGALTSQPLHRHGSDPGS

hERG (KCNH2) [14] = target: T1, hERG (KCNH2); test: Inhibition of human ERG expressed in HEK293 cells at 10 uM by whole-cell patch clamp method relative to control; assay type: toxicity, cell-based; settings: HEK293 cells that express hERG
[15] = test system: Mycobacteroides abscessus; test: Antimycobacterial activity against Mycobacterium abscessus RIVM incubated for 1 day by resazurin reduction microplate assay; assay type: functional; settings: 24 h
[16] = Kinetic solubility of compound in PBS at 100 uM incubated for 20 hrs in shaker by LC-MS/MS analysis; assay type: physicochemical; settings: read-out: Kinetic_solubility
[17] = target: DNA topoisomerase 2-alpha (Homo sapiens) (UniProt P11388); test: Inhibition of human DNA topoisomerase II alpha assessed as residual activity at 10 uM using supercoiled pNO1 plasmid as substrate incubated for 30 mins by diamond dye staining based fluorescence microplate reader assay relative to control
THP-1 [18] = test: Cytotoxicity against replicating human THP-1 cells upto 40 uM; assay type: toxicity, cell-based; settings: thp-1, 40 µM
[19] = Acute toxicity in zebrafish embryo assessed as effect on embryo survival upto 5 mM measured for 4 days; design: species or system Danio rerio; settings: in vivo, 96 h, 5000 µM, time 4 day
Escherichia coli [20] = test: Antibacterial activity against Escherichia coli ATCC 25922 incubated for 18 hrs by serial broth microdilution method; assay type: functional
Klebsiella pneumoniae = test: Antibacterial activity against Klebsiella pneumoniae ATCC10031 incubated for 18 hrs by serial broth microdilution method; assay type: functional
[21] = test system: Mycobacterium tuberculosis; test: as §1, with “increase in number of surviving macrophages” for “bacterial viability”, “10 to 30” for “10”, “analysis” for “analysis (reference value: 100%)”; assay type: functional, organism-based; settings: dose 10-30 µM, time 4.0 day
[22] = Inhibition of Mycobacterium smegmatis DNA gyrase using […] DNA as substrate incubated for 30 mins by gel based method; design: species or system Mycolicibacterium smegmatis
[23] = test system: Mycobacterium tuberculosis; test: as §1, with “increase in number of surviving macrophages” for “bacterial viability”, “1 to 30” for “10”, “analysis” for “analysis (reference value: 100%)”; assay type: functional, organism-based; settings: dose 1-30 µM, time 4.0 day
[24] = Protein binding in human plasma assessed as free fraction at 10 uM incubated for 4 hrs by rapid equilibrium dialysis based LC-MS/MS method; assay type: ADME, cell-free
[25] = Protein binding in mouse plasma assessed as free fraction at 10 uM incubated for 4 hrs by rapid equilibrium dialysis based LC-MS/MS method; assay type: ADME, cell-free
Enterobacter cloacae = test: Antibacterial activity against Enterobacter cloacae ATCC13047 incubated for 18 hrs by serial broth microdilution method; assay type: functional
[26] = test system: Mycobacterium tuberculosis; test: as §1, with “number of viable macrophages” for “bacterial viability”, “analysis” for “analysis (reference value: 100%)”; assay type: functional; settings: time 4 day

Structure (SMILES): C[C@H]1COc2c(N3CCN(C)CC3)c(F)cc3c(=O)c(C(=O)O)cn1c23 [LEVOFLOXACIN ANHYDROUS]
- Activity [1]: 2.3%

Structure (SMILES): NNC(=O)c1ccncc1 [ISONIAZID]
- Activity [1]: 4.9%

Structure (SMILES): Cc1[nH]c(C(=O)Nc2nc3c(OC(C)C4CCNCC4)cc(C(=O)O)cc3s2)c(Cl)c1Cl (stereo unspecified)
- MIC90 (Staphylococcus aureus): > 120 µM
- MIC (Segatella copri): > 20 µM
- Activity [2]: Non-Toxic
- IC50 [3]: 4.1 nM
- Activity (MCF7): 81%
- Activity (THP-1 [4]): Non-Toxic
- IC50 (DNA gyrase): < 10 nM
- MIC90 [5]: 0.63 µM (≈ 0.313 µg/mL)
- Activity [6]: 96%
- MIC (Anaerostipes hadrus): > 20 µM
- MIC90 [7]: 2.5 µM (≈ 1.24 µg/mL)
- Activity [8]: Dose-Dependent Effect
- MIC [9]: > 20 µM
- MIC90 (Pseudomonas aeruginosa): > 120 µM
- MIC90 (Escherichia coli [10]): 2 µM (≈ 0.995 µg/mL)
- MIC90 (Acinetobacter baumannii): > 120 µM
- Activity [11]: Non-Toxic
- IC50 [12]: 99 nM
- inhibition at 50 µM (hERG (KCNH2) [13]): 29%
- inhibition at 10 µM (hERG (KCNH2) [14]): 4.2%
- MIC90 [15]: 2.5 µM (≈ 1.24 µg/mL)
- solubility kinetic at 20 h, 100 µM [16]: 1 µM (≈ 0.497 µg/mL)
- Activity [17]: 96%
- Activity (THP-1 [18]): Non-Toxic
- Activity [19]: Non-Toxic
- MIC90 (Escherichia coli [20]): > 120 µM
- MIC90 (Klebsiella pneumoniae): > 120 µM
- Activity [21]: Active
- IC50 [22]: 5.7 nM

Structure (SMILES): Cc1[nH]c(C(=O)Nc2nc3c(OC(C)CN(C)C)cc(C(=O)O)cc3s2)c(Cl)c1Cl (stereo unspecified)
- MIC90 (Staphylococcus aureus): > 135 µM
- MIC (Segatella copri): > 20 µM
- Activity [2]: Non-Toxic
- Activity (THP-1 [4]): 34%
- MIC90 [5]: 2.5 µM (≈ 1.18 µg/mL)
- Activity [23]: inactive
- MIC (Anaerostipes hadrus): > 20 µM
- MIC90 [7]: 0.63 µM (≈ 0.297 µg/mL)
- Activity [8]: Dose-Dependent Effect
- MIC [9]: > 20 µM
- MIC90 (Pseudomonas aeruginosa): > 135 µM
- MIC90 (Escherichia coli [10]): 2 µM (≈ 0.943 µg/mL)
- fraction unbound at 4 h, 10 µM [24]: 0.029
- MIC90 (Acinetobacter baumannii): > 135 µM
- Activity [11]: Non-Toxic
- MIC90 [15]: 0.63 µM (≈ 0.297 µg/mL)
- solubility kinetic at 20 h, 100 µM [16]: 55 µM (≈ 25.9 µg/mL)
- fraction unbound at 4 h, 10 µM [25]: 0.047
- Activity (THP-1 [18]): Non-Toxic
- Activity [19]: Non-Toxic
- MIC90 (Escherichia coli [20]): > 135 µM
- MIC90 (Klebsiella pneumoniae): 8 µM (≈ 3.77 µg/mL)
- MIC90 (Enterobacter cloacae): > 135 µM

Structure (SMILES): Cc1[nH]c(C(=O)Nc2nc3c(OC(CN4CC[N+](C)(C)CC4)c4ccccc4)cc(C(=O)O)cc3s2)c(Cl)c1Cl (stereo unspecified)
- Activity (Staphylococcus aureus): inactive
- MIC90 [5]: 0.31 µM
- MIC90 [7]: 0.32 µM
- MIC90 [15]: 0.63 µM

Structure (SMILES): Cc1[nH]c(C(=O)Nc2nc3c(OC(CN4CCN(C)CC4)c4ccccc4)cc(C(=O)O)cc3s2)c(Cl)c1Cl (stereo unspecified)
- MIC90 [5]: 20 µM (≈ 11.8 µg/mL)
- MIC90 [7]: 2.5 µM (≈ 1.47 µg/mL)
- MIC90 [15]: 2.5 µM (≈ 1.47 µg/mL)

Structure (SMILES): Cc1[nH]c(C(=O)Nc2nc3c(OCC(C)N(C)C)cc(C(=O)O)cc3s2)c(Cl)c1Cl (stereo unspecified)
- MIC90 [5]: 40 µM (≈ 18.9 µg/mL)
- MIC90 [7]: 10 µM (≈ 4.71 µg/mL)
- MIC90 [15]: 0.63 µM (≈ 0.297 µg/mL)

Structure (SMILES): Cc1[nH]c(C(=O)Nc2nc3c(OC(CN4CCOCC4)C4CC4)cc(C(=O)O)cc3s2)cc1F (stereo unspecified)
- MIC90 (Staphylococcus aureus): 131 µM (≈ 64 µg/mL)
- MIC90 [5]: > 20 µM
- MIC90 [7]: 2.5 µM (≈ 1.22 µg/mL)
- MIC90 (Pseudomonas aeruginosa): > 131 µM
- MIC90 (Acinetobacter baumannii): > 131 µM
- MIC90 [15]: 1.25 µM (≈ 0.611 µg/mL)
- MIC90 (Escherichia coli [20]): > 131 µM
- MIC90 (Klebsiella pneumoniae): 33 µM (≈ 16.1 µg/mL)
- MIC90 (Enterobacter cloacae): > 131 µM

Structure (SMILES): Cc1[nH]c(C(=O)Nc2nc3c(OC(CN(C)C)c4ccccc4)cc(C(=O)O)cc3s2)cc1F (stereo unspecified)
- MIC90 (Staphylococcus aureus): 33 µM (≈ 15.9 µg/mL)
- MIC90 [5]: 2.5 µM (≈ 1.21 µg/mL)
- Activity [6]: 99%
- MIC90 [7]: 1.25 µM (≈ 0.603 µg/mL)
- MIC90 (Pseudomonas aeruginosa): 33 µM (≈ 15.9 µg/mL)
- MIC90 (Acinetobacter baumannii): > 133 µM
- MIC90 [15]: 0.31 µM (≈ 0.15 µg/mL)
- Activity [17]: 99%
- MIC90 (Escherichia coli [20]): 133 µM (≈ 64.2 µg/mL)
- MIC90 (Klebsiella pneumoniae): 2 µM (≈ 0.965 µg/mL)
- MIC90 (Enterobacter cloacae): > 133 µM

Structure (SMILES): CO[C@H]1/C=C/O[C@@]2(C)Oc3c(C)c(O)c4c(O)c(c(/C=N/N5CCN(C)CC5)c(O)c4c3C2=O)NC(=O)/C(C)=C\C=C\[C@H](C)[C@H](O)[C@@H](C)[C@@H](O)[C@@H](C)[C@H](OC(C)=O)[C@@H]1C [RIFAMPIN]
- Activity [1]: 1.4%
- Activity [26]: 100%
